Entries after “also recorded” stand apart in the source; their conditions may differ. Where two headings read alike, the source gives them in different places.
What was measured:
[1] = system: enzyme of the present invention (KDNase); assay: Substrate specificity: cleavage of ketosidic linkage, detected by thin layer chromatography; type: biochemical, Sphingobacterium mOL12-4s; design: key to Presence or absence of cleavage: Those in which KDN, Neu5Ac, or Neu5Gc was liberated are indicated by "+"; those in which KDN, Neu5Ac, or Neu5Gc was not liberated at all are indicated by "-"; conditions: for Presence or absence of cleavage: substrate corresponding to 5 μg KDN, Neu5Ac or Neu5Gc, enzyme 80 milliunits, 25° C., 20 hours, pH 6.0, 0.1M NaCl
Protocol: The reactivity of the enzyme of the present invention was investigated for various KDN-containing complex carbohydrates and carbohydrates and sialic acid-containing complex carbohydrates and carbohydrates.
Each of the foregoing complex carbohydrates or carbohydrates containing KDN or sialic acid, which corresponded to 5 μg of KDN or N-acetylneuraminicacid (Neu5Ac) or N-glycolylneuraminic acid (Neu5Gc), was allowed to coexist with the enzyme of the present invention (80 milliunits) at 25° C. for 20 hours in 10 μl of 0.1M Tris-acetate buffer (pH 6.0) containing 0.1M NaCl.
The reaction solution was spotted on a plate for silica gel thin layer chromatography (produced by Merck), and developed for 7 hours with 1-propanol: 25% aqueous ammonia: water=6:1:2.5 (volume ratio). After the development, the plate was dried, on which 10% sulfuric acid ethanol solution was sprayed. The plate was heated at 120° C. to cause color development for the complex carbohydrates or carbohydrates and liberated KDN, Neu5Ac, or Neu5Gc. A control was provided, in which the reaction was performed without addition of the enzyme. Those in which KDN, Neu5Ac, or Neu5Gc was liberated are indicated by "+", and those in which KDN, Neu5Ac, or Neu5Gc was not liberated at all are indicated by "-".

[2] = system: Sphingobacterium mOL12-4s; assay: Induction of KDNase in Sphingobacterium mOL12-4s; conditions: for Number of cells: 0.1% (w/v) added substance in M9 liquid medium, 6.1×10^10 cells inoculated; for Number of cells / KDNase activity per cells / Number of cells, ratio to before addition (value in []) / KDNase activity: 25° C., 24 hours; for Number of cells, ratio to before addition (value in []): before addition = 1; for KDNase activity: supernatant of disrupted cells; for fold induction at 1000 µg/mL: 24 h
Protocol: Bacterial cells (4.0×10^8) of Sphingobacterium mOL12-4s were inoculated into 40 ml of M9 liquid medium containing 1% (w/v) casein hydrolysate (casamino acid, produced by Gibco) and 1% (w/v) glucose (Glc), and cultivated at 25° C. for 44 hours. Microbial cells (bacterial cells) at the growth phase were collected, and washed twice with M9 liquid medium. The microbial cells (6.1×10^10 cells) were inoculated into 2.0 ml of M9 liquid medium containing 0.1% (w/v) crude KDN-OS, KDN-OS, KDN, Neu5Ac, acid hydrolysate of colominic acid (oligo-Neu5Ac; Kitazume, S. et al., Anal. Biochem., 202, 25-34 (1992)), or Glc, and incubated at 25° C. for 24 hours to measure the number of growable cells and the KDNase activity. The number of cells was determined by diluting each incubated cell cultivation liquid to inoculate an obtained diluted solution into an LB agar medium plate, and counting a number of grown colonies (Kitajima, K. et al., J. Biol. Chem., 269, 21415-21419). In order to measure the KDNase activity of the cells, the cells were collected by means of centrifugation at 5,000 rpm or 1,500× g for 10 minutes. The collected cells were suspended in 0.5 ml of 100 mM Tris-acetate buffer (pH 6.0) containing 100 mM NaCl, and disrupted by means of ultrasonication (50 watts, 1 minute). The disrupted preparation was centrifuged at 10,000 rpm or 6,000× g for 10 minutes to subsequently obtain a supernatant for which the KDNase activity was measured. The numerical value in [] in Table 1 indicates a ratio provided that the activity before the addition is regarded as 1.

[3] = system: enzyme of the present invention (KDNase); assay: Inhibition and activation of the enzyme, 4-MU-KDN method; type: biochemical, Sphingobacterium mOL12-4s; conditions: for effect on the activity of the enzyme: added at 1 mM
Protocol: Specifically, 1.4 nmol of 4-MU-KDN was added to an enzyme solution prepared by dissolving the enzyme in 20 μl of 0.1M Tris-acetate buffer (pH 6.0)/0.1M NaCl to perform a reaction at 25° C. for 30 minutes. After the reaction, an aliquot of the reaction solution (20 μl) was mixed with 2.5 ml of 85 mM glycine-carbonate buffer (pH 9.3) to measure the fluorescent strength (exciting wavelength: 365 nm, measuring wavelength: 450 nm). For the measurement of the fluorescent strength, reference was made to Biochemistry, Vol. 18, No. 13, pp. 2783-2787. A fluorescent strength, which was obtained when the reaction was performed in the same manner as described above except that the enzyme was not added, was used as control. An amount of the enzyme, which hydrolyzed 1 nmol of 4-MU-KDN per 1 minute at 25° C., was defined as 1 unit.
In order to investigate influences of, for example, inorganic ions and EDTA (ethylenediaminetetraacetic acid) on the activity of the enzyme of the present invention, these compounds were added to the reaction solution to perform the enzyme reaction in accordance with the 4-MU-KDN method.
The influence of the ionic strength on the enzyme of the present invention was investigated.
2,3-Dehydro-2-deoxy-N-acetylneuraminic acid is a specific inhibitor for known sialidase which cleaves the ketosidic linkage formed by N-acylneuraminic acid.

[4] = system: enzyme of the present invention (KDNase); assay: Measurement of Michaelis constant and Vmax with 4-MU-KDN as substrate; type: biochemical, Sphingobacterium mOL12-4s; conditions: 25° C.; for Vmax: pH 6.0
Protocol: The Michaelis constant (Km) and the maximum enzyme reaction velocity (Vmax) were determined on condition that 4-methylumbelliferyl KDN (4-MU-KDN) was used as a substrate for the enzyme of the present invention. The enzyme (32 milliunits) and the substrate (4-MU-KDN, 6.7 μM) were reacted at 25° C. in 216 μl of a reaction solution (0.1M Tris-acetate buffer (pH 6.0)/0.1M NaCl containing 0.1 mg/ml of bovine serum albumin). As a result, 4-methylumbelliferone (4-MU) was liberated linearly within 1 hour.
At this enzyme concentration, initial reaction velocities were measured by performing the reaction at 25° C. for 30 minutes in the same reaction solution as described above while variously changing the concentration of 4-MU-KDN in a range of 21 to 167 μM. A Lineweaver-Burkplot was obtained, and thus the Michaelis constant was calculated.

[5] = read-out: KDNase activity per cells, ratio to before addition (value in [])
[6] = read-out: KDNase activity, ratio to before addition (value in [])

For “human transferrin: human transferrin purchased from Sigma”, the “Presence or absence of cleavage” value [1] was “-”.

For `O=C[C@H](O)[C@@H](O)[C@H](O)[C@H](O)CO` [Glc, glucose], the Number of cells [2] was 1.7 × 10^12, the “KDNase activity per cells” value ([2]; 0.1% (w/v)) was 0.47 milliunit/10^10 cells and the “Number of cells, ratio to before addition (value in [])” value (shortened to “Number of cells, ratio”) ([2]; 0.1% (w/v)) was 28. It also gave a KDNase activity ([2]; 0.1% (w/v)) of 80 milliunit, a fold induction at 1000 µg/mL [2, 5] of 0.14 and a fold induction at 1000 µg/mL [2, 6] of 4.

In the case of `CC(=O)N[C@H]1[C@H]([C@H](O)[C@H](O)CO)OC(O)(C(=O)O)C[C@@H]1O` (stereo partly drawn) [Neu5Ac, N-acetylneuraminic acid], the Number of cells [2] is reported as 2.5 × 10^10, the “KDNase activity per cells” value ([2]; 0.1% (w/v)) is reported as 6.0 milliunit/10^10 cells and the “Number of cells, ratio” value ([2]; 0.1% (w/v)) is reported as 0.41. It also gave a KDNase activity ([2]; 0.1% (w/v)) of 15 milliunit, a fold induction at 1000 µg/mL [2, 5] of 1.8 and a fold induction at 1000 µg/mL [2, 6] of 0.75.

In the case of “fetal bovine serum fetuin: fetal bovine serum fetuin purchased from Sigma”, the “Presence or absence of cleavage” value [1] is reported as “-”.

In the case of `[Mn+2]` [manganese ion], the “effect on the activity of the enzyme” value [3] is reported as “not affected”.

For colominic acid, the “Presence or absence of cleavage” value [1] was “-”.

For `O=C(O)C1(O)C[C@H](O)[C@@H](O)[C@H]([C@H](O)[C@H](O)CO)O1` (stereo partly drawn) [KDN, 3-deoxy-D-glycero-D-galacto-nonulosonic acid], the “induction of KDNase (in words)” value ([2]; 0.1% (w/v)) was “induced KDNase”, the Number of cells [2] was 3.6 × 10^10 and the “KDNase activity per cells” value ([2]; 0.1% (w/v)) was 11 milliunit/10^10 cells. For the same molecule, the “Number of cells, ratio” value ([2]; 0.1% (w/v)) was 0.59, the KDNase activity ([2]; 0.1% (w/v)) was 38 milliunit and the fold induction at 1000 µg/mL [2, 5] was 3.3. For the same molecule, the fold induction at 1000 µg/mL [2, 6] was 1.9, the “inhibition of the enzyme” value ([3]; 3 mM) was “inhibited” and the “inhibition of the enzyme” value ([3]; concentration not given) was “inhibited”.

With `C[C@H](CCC(=O)O)[C@H]1CC[C@H]2[C@@H]3[C@H](O)C[C@@H]4C[C@H](O)CC[C@]4(C)[C@H]3C[C@H](O)[C@]12C` [sodium cholate] the enzyme activity maintained ([3]; 0.1%, 30 min) was “about 90%” and the “enzyme activity in the presence of the additive” value ([3]; 0.5%) was “substantially disappeared; also recorded: disappears”.

In the case of `O=C(O)CN(CCN(CC(=O)O)CC(=O)O)CC(=O)O` [EDTA, ethylenediaminetetraacetic acid], the “effect on the activity of the enzyme” value [3] is reported as “not affected”.

In the case of `CC(=O)NC1C(O)CC(Oc2ccc3c(C)cc(=O)oc3c2)(C(=O)O)OC1C(O)C(O)CO` (stereo not drawn) [4-MU-Neu5Ac, 4-Methylumbelliferyl Neu5Ac], the “Presence or absence of cleavage” value [1] is reported as “-”.

In the case of `CC(=O)N[C@H]1[C@H]([C@H](O)[C@H](O)CO)OC(O)(C(=O)O)C[C@@H]1O` (stereo partly drawn) [free sialic acid, sialic acid], the “inhibition of the enzyme” value ([3]; concentration not given) is reported as “not inhibited”.

In the case of `[Cl-].[Na+]` [NaCl], the “enzyme activity at low ionic strength” value ([3]; 50 mM or less) is reported as “extremely low” and the “concentration giving maximum enzyme activity (ionic strength)” value ([3]; FIG. 10) is reported as 300 mM.

For `[Ca+2]` [calcium ion], the “effect on the activity of the enzyme” value [3] was “not affected”.

In the case of `O=C(CO)NC1C(O)CC(OC(CO)C(O)C2OC(O)(C(=O)O)CC(O)C2NC(=O)CO)(C(=O)O)OC1C(O)C(O)CO` (stereo not drawn) [Neu5Gc dimer, N-glycolylneuraminic acid (Neu5Gc) dimer], the “Presence or absence of cleavage” value [1] is reported as “-”.

For “KDNα2→3Galβ1→4Glcβ1→Cer [KDN-containing ganglioside GM3]”, the “Presence or absence of cleavage” value [1] was “+”.

In the case of `CC(=O)NC1C(O)CC(OC(CO)C(O)C2OC(O)(C(=O)O)CC(O)C2NC(C)=O)(C(=O)O)OC1C(O)C(O)CO` (stereo not drawn) [Neu5Ac dimer, N-acetylneuraminic acid (Neu5Ac) dimer], the “Presence or absence of cleavage” value [1] is reported as “-”.

With `[Mg+2]` [magnesium ion] the “effect on the activity of the enzyme” value [3] was “not affected”.

“N-Acetylneuraminic acid lactose [Neu5Ac lactose]” was tested, and the “Presence or absence of cleavage” value [1] was “-”.

In the case of `CC(=O)NC(CO)C(OC1OC(CO)C(O)C(O)C1O)C(O)C(O)COC1(C(=O)O)CC(O)C(NC(C)=O)C(C(O)C(O)CO)O1` (stereo not drawn) [Neu5Acα2→6(Galβ1→3)GalNAcol], the “Presence or absence of cleavage” value [1] is reported as “-”.

With `CC(=O)N[C@H]1[C@H]([C@H](O)[C@H](O)CO)OC(C(=O)O)=C[C@@H]1O` [2,3-dehydro-2-deoxy-N-acetylneuraminic acid] the “inhibition of the enzyme” value ([3]; concentration not given) was “not inhibited”.

In the case of Triton X-100, the “inhibition of the enzyme” value ([3]; concentration not given) is reported as “not inhibited; also recorded: does not inhibit”.

For `O=C(O)C1(O)CC(O)C(O)C(C(O)C(CO)OC2(C(=O)O)CC(O)C(O)C(C(O)C(O)CO)O2)O1` (stereo not drawn) [KDN dimer, KDNα2→8KDN], the “Presence or absence of cleavage” value [1] was “+”.

Molecule `Cc1cc(=O)oc2cc(OC3(C(=O)O)C[C@H](O)[C@@H](O)[C@H]([C@H](O)[C@H](O)CO)O3)ccc12` (stereo partly drawn) [4-MU-KDN, 4-methylumbelliferyl KDN] has a Vmax [4] of 7.4 mM/min/mg protein, a Km ([4]; pH 6.0, 0.1M NaCl, 0.1 mg/ml BSA, Lineweaver-Burk plot, 21 to 167 μM substrate) of 19 µM and a Vmax ([4]; enzyme 32 milliunits in 216 μl) of 0.19 µM/min. The “action of the enzyme on the ketosidic linkage (in words)” value [1] was “acts on”, the “action of the enzyme on the ketosidic linkage (in words)” value ([1]; listed as 4-methylumbelliferyl KDN) was “can also act on” and the “Presence or absence of cleavage” value [1] was “+”.

Source: patent US5834288A, “KDN-specific deminoneuraminidase from Sphingobacterium multivorum” (Seikagaku Corporation, priority 1994, dated 1998)
